Results on five compounds are retold here after patent publication US5256533A, “As a probe of serotonin uptake harmaline” (Board of Regents, The University of Texas System, priority 1990, dated 1993).

“Also recorded” adds a separate entry of the source.

One experiment concerns serotonin receptors. The following applies: Glennon 1981; cited from earlier work.
For experiment [1], the system named is ^3 H-serotonin uptake by retina. Description: Inhibition of 3H-serotonin uptake in retina (FIG. 5). The experiment is classed as cell-based.
The target of experiment [2] is [^3 H]Serotonin binding sites of brain tissue. Description: Inhibition of [3H]serotonin binding by brain homogenates. The following applies: concentration causing 50% inhibition of isotope binding. The method, then: TABLE 1 illustrates the general inhibitory effects of beta carbolines on neurotransmitter binding by brain tissue. Samples of brain tissue rich in the respective neurotransmitter binding sites were obtained, homogenized, washed and incubated with a series of beta carboline concentrations. After subsequent additions of tritiated neurotransmitters, the extent of beta carboline inhibition of labeled neurotransmitter binding was measured. As shown, a variety of beta carbolines were effective antagonists of several neurotransmitters. […] These beta carbolines may be used as vital stains for the respective neurotransmitter systems, accumulating in living tissue.

Another experiment deals with opiate sites. The following applies: Muller et al. 1981; cited from earlier work.
Another experiment deals with rat retina. Briefly: Fluorescent harmaline accumulation in perfused living retina. The experiment is classed as cell-based. The method, then: One test of the serotonin site ligand, harmaline, is in the neuronal tissue of the rat retina. This tissue is known to contain intracellular serotonin. The serotonergic neurotransmitter system in rat retinal neurons has been previously studied and sites of serotonin accumulation have been identified (Redburn and Churchill 1987) primarily using radiolabelled ^3 H-serotonin (see FIG. 2). According to one test of the invention, it was determined that harmaline accumulated in living rat retina tissue in a specific manner. […] The harmaline present in the OPL begins to dissipate when the stained retina is exposed to sodium-free buffer (see FIG. 3, frame B). Exposure of the stained retina to darkness stimulates harmaline release from the OPL (see FIG. 3, frame C). Further, quantitative evaluation of harmaline accumulation was achieved by measuring the amount of fluorescence given off by harmaline when excited with UV-radiation. A light meter was used to generate data. The light meter gathered light emissions from the eyepiece of an ultraviolet microscope. Harmaline's excitation spectrum is 350-390 nm with emission spectra greatest at 480 and 560 nm in the visible range producing a blue green light. Tissue was placed under a microscope in a sealed perfusion chamber through which oxygenated (95% O2 -5% CO2) buffer flowed. Upon administration of harmaline, data from the light meter was standardized to units of harmaline concentration (using standard curves).

In another experiment the test system is monoamine oxidase A. The following applies: Fuller et al. 1985; cited from earlier work.
The subject of another experiment is benzodiazepine receptor. The following applies: Muller et al. 1981; cited from earlier work.
In experiment [3] the target is [^3 h]Noradrenaline binding sites of brain tissue. Briefly: Inhibition of [3H]noradrenaline binding by brain homogenates. The following applies: concentration causing 50% inhibition of isotope binding. As for the experimental part:
(§1) Samples of brain tissue rich in the respective neurotransmitter binding sites were obtained, homogenized, washed and incubated with a series of beta carboline concentrations. After subsequent additions of tritiated neurotransmitters, the extent of beta carboline inhibition of labeled neurotransmitter binding was measured.

For experiment [4], the target named is [^3 H]GABA binding sites of brain tissue. Briefly: Inhibition of [3H]GABA binding by brain homogenates. The following applies: concentration causing 50% inhibition of isotope binding. The method, then:
as §1

Another experiment relates to leukocytes and platelets. Briefly: Harmaline accumulation in blood cells by spectrophotofluorometry. The experiment is classed as cell-based, human. As for the experimental part: (§2) For this experiment, the beta carboline, harmaline was used. […] Prior to the use of a beta carboline to analyze blood tissues, blood was collected, then leukocytes and platelets were gradient separated utilizing a hypaque/centrifugation technique. The leukocytes were then re-suspended in culture media (phosphate buffered saline (PBS) with bovine serum albumin) at a concentration of […]. The cells and platelets may then be incubated with a solution containing antagonist(s) or blockers of undesired neurotransmitter interactions. With harmaline, there is some amount of cross reactivity with the alpha-2 (noradrenaline) receptor. […] The labelled cells were then analyzed using both spectrophotofluorometry and ultraviolet flow cytometry. With the flow cytometry-analyzed tissue an experiment to detect the presence of imipramine, the serotonin uptake system antagonist, was implemented.
In spectrophotofluorometry (SPF), a volume of labeled cells in suspension are analyzed together, the sum of their emitted fluorescence recorded using a spectrophotofluorometer and compared with other samples with the same concentration of cells. […] This method assumes that the fluorescence emitted from a sum of collected sources (cells) increases proportionally with an individual source. […]

In experiment [5] the test system is muscarinic cholinergic sites. Conditions: Muller et al. 1981; cited from earlier work.
Experiment [6] concerns lymphocytes and platelets. Briefly: Harmaline accumulation in blood cells by ultraviolet flow cytometry. In kind it is cell-based, human. The method, then: as §2, with “receptor. As the blood cells and platelets both have alpha-2 receptors, the noradrenaline antagonist, yohimbine was chosen to block undesired reactivity with these sites. Cells were incubated for 10 minutes with a 100 μM solution of yohimbine. The cells were then divided into numerous samples which were each exposed to increasing concentrations of harmaline (1 μM to 100 μM concentrations were used) for a period of five minutes each.” for “receptor.”
With flow cytometry, a sample of cells was treated prior to analysis, as above. Fluorescence of individual cells was then analyzed sequentially as they passed through detection beams of light in a micro-stream of fluid. Using this method, literally emissions of cells, or "events" were analyzed and statistically computed to elicit accuracy of analysis. In addition, as individual cells are analyzed, more subtle changes in fluorescence ligand-cell association can be appreciated. There are some procedures for measuring the actual number of binding sites on cells which combine flow cytometry with steady-state fluorescence (Steinkamp and Kramer 1979) or radiometric assays (Titus et al. 1981), while others employ fluorescent calibration standards (Sklar et al. 1984). […]
Background: In flow cytometry, cells or beads pass a laser one at a time.

Experiment [7] has as its target [^14 C]Dopamine binding sites of brain tissue. Description: Inhibition of [14C]dopamine binding by brain homogenates. The following applies: read-out: IC50, inhibition binding, concentration causing 50% inhibition of isotope binding. As for the experimental part:
TABLE 1 illustrates the general inhibitory effects of beta carbolines on neurotransmitter binding by brain tissue. Samples of brain tissue rich in the respective neurotransmitter binding sites were obtained, homogenized, washed and incubated with a series of beta carboline concentrations. […] As shown, a variety of beta carbolines were effective antagonists of several neurotransmitters. […] These beta carbolines may be used as vital stains for the respective neurotransmitter systems, accumulating in living tissue.

Experiment [8] concerns the target [^3 H]Choline binding sites of brain tissue. Description: Inhibition of [3H]choline binding by brain homogenates. Conditions: concentration causing 50% inhibition of isotope binding. The method, then: as §1
The subject of experiment [9] is noradrenergic system of blood cells and platelets. Briefly: THN accumulation in blood cells and platelets, noradrenaline system. In kind it is cell-based. The following applies: imipramine 100 μM and serotonin 100 μM pretreatment; extrapolated from literature. As for the experimental part: The analysis of a noradrenaline system using the beta carboline tetrahydronorharman (THN) could be tested using the method described with blood cells and platelets. Cells and platelets would be collected, then pre-treated with solutions to block sites of the serotonin system in order to limit interactions to that of the noradrenergic system. Cells would be first incubated for 10 minutes with the serotonin uptake blocker, imipramine at 100 μM, following which serotonin itself was added to make a concentration of 100 μM for an additional 5 minute incubation. The cells and platelets thusly prepared would then be incubated with the beta carboline, THN, at concentrations of 10 nM to 100 μM. […] These values were obtained via extrapolation from pertinent literature on THN and noradrenaline.

Setting [10] is: perfusion concentration 5 μM harmaline.

One may read the EC50 as the concentration giving half of the maximal effect.

For “7-methoxy-3,4-dihydro-beta-carboline [harmaline]”, the “Binding affinity for serotonin receptors” value in the experiment with serotonin receptors is reported as “high binding affinities”. Further, the “Inhibition of ^3 H-serotonin uptake by retina” value in experiment [1] is “competitively inhibited”. In addition, the figures for the IC50 in experiment [2], in experiment [3] and in experiment [4] were 43 µM, 43 µM and 238 µM, respectively. Further, the “IC50 for opiate sites relative to other sites” value with opiate sites is “about four times lower than for serotonin or dopamine sites; also recorded: about four times higher than found for benzodiazepine antagonism”. Besides, the “Accumulation inside versus outside the cell” value in the experiment with rat retina is listed as “three times greater inside than outside the cell”. Moreover, in the experiment with rat retina, the “Dependence of accumulation in retina” value was “sodium dependent, energy dependent”. In addition, the “Harmaline concentration in outer retina relative to control (non-viable) tissue” value in the experiment with rat retina (setting [10]) came out at 3 fold. Moreover, the “Harmaline concentration in outer retina relative to surrounding perfusate” value with rat retina (setting [10]) turned out to be 3 fold. Further, the “Inhibition of monoamine oxidase A in vivo” value in the experiment on monoamine oxidase A is “potently inhibit”. The “Potency at benzodiazepine binding relative to serotonin or dopamine” value in the experiment on benzodiazepine receptor is “far more potent antagonist of benzodiazepine binding than it is for serotonin or dopamine”. In the experiment on leukocytes and platelets (fluorescence measurement), the “Nature of accumulation in human lymphocytes” value was “saturable, concentration-dependant phenomena”. Also, the EC50 in the experiment on leukocytes and platelets (yohimbine 100 μM pretreatment, harmaline 1-100 μM, 5 minutes, read-out: EC50 of fluorescent accumulation (spectrophotofluorometry)) is 30 µM; in experiment [6] (yohimbine 100 μM pretreatment, harmaline 1-100 μM, 5 minutes, read-out: EC50 of fluorescent accumulation (flow cytometry)), 25 µM. The “IC50 for muscarinic cholinergic sites relative to other sites” value in [5] is reported as “about four times lower than for serotonin or dopamine sites; also recorded: about four times higher than found for benzodiazepine antagonism”. Besides, the “Concentration at which accumulation saturates” value in [6] (at 5 minutes) lay within 75 to 100 µM.

Turning to `c1ccc2c(c1)[nH]c1cnccc12` [beta-carboline], the IC50 in experiment [7] amounted to 100 µM; in [2], 9.1 µM; in experiment [8] it was 75 µM; in experiment [3], 80 µM; in [4], 335 µM.

In the case of `c1ccc2c3c([nH]c2c1)CNCC3` [1,2,3,4-tetrahydro-beta-carboline], the IC50 in experiment [7] worked out at 220 µM; in [2] it was 6 µM; in [8] it was 9000 µM; in [3] it was 13 µM; in experiment [4] it was 153 µM. Also, the “THN concentration at which fluorescent accumulation saturates” value in experiment [9] was “approximately 10 μM”.

As to `COc1ccc2c(c1)[nH]c1c(C)nccc12` [7-methoxy-1-methyl-beta-carboline], the IC50 in experiment [2] came to 27 µM; in experiment [8], 200 µM; in experiment [3], 700 µM.

With `CN(C)CCCN1c2ccccc2CCc2ccccc21` [imipramine], the “Inhibition of ^3 H-serotonin uptake by retina” value in [1] is reported as “antagonized”. Further, in [6] (brief incubation with imipramine 25 μM), the “Effect on measured harmaline accumulation” value is “the measured harmaline accumulation was less”.
